Read-outs that look alike come from different tables or passages of the source.
Key:
[1] = molecular target: human α6β2γ2 GABAA receptor (Homo sapiens, UniProt P18507+P47870+Q16445, DEL377-384, form not given); assay: Whole-cell patch clamp, HEK293 cells expressing α6β2γ2 GABAARs; assay type: cell-based
[2] = molecular target: human α1β2γ2 GABAA receptor (Homo sapiens, UniProt P14867+P18507+P47870, DEL377-384, form not given); assay type: cell-based; settings: for Enhancement of GABA current by carisoprodol, % of control: 100 µM CSP
[3] = molecular target: human α1β1γ2 GABAA receptor (Homo sapiens, UniProt P14867+P18505+P18507, DEL377-384, form not given); assay: Whole-cell patch clamp, HEK293 cells expressing α1β1γ2 GABAARs; assay type: cell-based
[4] = molecular target: human α3β2γ2 GABAA receptor (Homo sapiens, UniProt P18507+P34903+P47870, DEL377-384, form not given); assay: Whole-cell patch clamp, HEK293 cells expressing α3β2γ2 GABAARs; assay type: cell-based
[5] = molecular target: T1, human α1β2 GABAA receptor (Homo sapiens, UniProt P14867+P47870); assay type: cell-based
T1 sequence (P14867 28-456): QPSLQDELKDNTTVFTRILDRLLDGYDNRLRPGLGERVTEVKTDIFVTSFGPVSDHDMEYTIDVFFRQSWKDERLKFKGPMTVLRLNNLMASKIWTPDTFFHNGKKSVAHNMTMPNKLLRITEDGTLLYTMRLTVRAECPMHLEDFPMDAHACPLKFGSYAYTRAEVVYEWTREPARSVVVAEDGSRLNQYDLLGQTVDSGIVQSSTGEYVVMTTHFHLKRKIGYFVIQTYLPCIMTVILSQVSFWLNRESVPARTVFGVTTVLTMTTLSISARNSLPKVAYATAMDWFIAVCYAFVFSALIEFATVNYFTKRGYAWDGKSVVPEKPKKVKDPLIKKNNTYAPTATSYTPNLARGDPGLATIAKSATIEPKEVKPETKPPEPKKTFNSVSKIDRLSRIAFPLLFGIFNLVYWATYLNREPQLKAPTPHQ
T1 sequence (P47870 25-512 limits assumed): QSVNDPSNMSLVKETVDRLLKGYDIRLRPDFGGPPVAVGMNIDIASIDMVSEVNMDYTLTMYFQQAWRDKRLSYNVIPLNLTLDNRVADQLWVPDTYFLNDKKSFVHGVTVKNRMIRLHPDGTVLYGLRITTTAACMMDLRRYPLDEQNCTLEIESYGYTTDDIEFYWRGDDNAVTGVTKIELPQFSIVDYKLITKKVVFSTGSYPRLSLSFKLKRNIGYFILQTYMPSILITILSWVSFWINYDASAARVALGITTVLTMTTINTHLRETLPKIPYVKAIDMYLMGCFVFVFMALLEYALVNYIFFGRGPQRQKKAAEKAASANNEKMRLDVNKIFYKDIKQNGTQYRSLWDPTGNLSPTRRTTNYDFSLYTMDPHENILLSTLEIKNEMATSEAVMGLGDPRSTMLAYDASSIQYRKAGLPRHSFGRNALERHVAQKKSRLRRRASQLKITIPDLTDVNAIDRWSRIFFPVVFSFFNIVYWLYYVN

[6] = molecular target: human α2β2γ2 GABAA receptor (Homo sapiens, UniProt P18507+P47869+P47870, DEL377-384, form not given); assay: Whole-cell patch clamp, HEK293 cells expressing α2β2γ2 GABAARs; assay type: cell-based
rat α4β3δ GABAA receptor = rat α4β3δ GABAA receptor (Rattus norvegicus, UniProt P18506+P28471+P63079); assay: Whole-cell patch clamp, HEK293 cells expressing extrasynaptic rat α4β3δ GABAARs; assay type: cell-based; settings: for Potentiation of saturating (maximal) GABA currents: sub-gating concentration of drug
Sequence of rat α4β3δ GABAA receptor (P28471 36-552): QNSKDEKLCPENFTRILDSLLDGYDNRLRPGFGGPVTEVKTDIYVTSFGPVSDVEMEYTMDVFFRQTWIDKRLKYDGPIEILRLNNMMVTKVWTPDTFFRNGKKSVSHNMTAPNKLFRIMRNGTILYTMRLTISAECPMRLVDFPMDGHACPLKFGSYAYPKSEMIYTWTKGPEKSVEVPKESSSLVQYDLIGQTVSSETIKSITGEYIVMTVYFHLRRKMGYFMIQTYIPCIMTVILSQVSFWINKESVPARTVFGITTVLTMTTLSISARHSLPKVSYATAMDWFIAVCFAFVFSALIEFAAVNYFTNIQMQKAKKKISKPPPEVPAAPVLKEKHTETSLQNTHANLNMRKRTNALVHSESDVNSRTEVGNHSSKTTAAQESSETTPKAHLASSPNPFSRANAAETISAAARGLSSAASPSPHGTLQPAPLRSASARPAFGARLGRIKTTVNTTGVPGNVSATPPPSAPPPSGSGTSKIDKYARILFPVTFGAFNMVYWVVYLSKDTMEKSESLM
Sequence of rat α4β3δ GABAA receptor (P63079 26-473): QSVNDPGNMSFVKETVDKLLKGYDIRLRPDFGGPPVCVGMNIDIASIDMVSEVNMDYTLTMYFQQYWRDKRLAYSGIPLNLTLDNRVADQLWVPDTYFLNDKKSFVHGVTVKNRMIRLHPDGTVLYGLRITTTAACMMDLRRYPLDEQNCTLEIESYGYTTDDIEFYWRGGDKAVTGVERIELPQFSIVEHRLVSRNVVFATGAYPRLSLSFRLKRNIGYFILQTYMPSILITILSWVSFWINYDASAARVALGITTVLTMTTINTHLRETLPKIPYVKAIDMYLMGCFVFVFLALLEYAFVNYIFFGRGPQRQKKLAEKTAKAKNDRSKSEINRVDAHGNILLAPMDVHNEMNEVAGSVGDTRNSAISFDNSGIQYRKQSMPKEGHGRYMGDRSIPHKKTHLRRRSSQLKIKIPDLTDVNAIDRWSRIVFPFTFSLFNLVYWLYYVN
Sequence of rat α4β3δ GABAA receptor (P18506 17-449 limits assumed): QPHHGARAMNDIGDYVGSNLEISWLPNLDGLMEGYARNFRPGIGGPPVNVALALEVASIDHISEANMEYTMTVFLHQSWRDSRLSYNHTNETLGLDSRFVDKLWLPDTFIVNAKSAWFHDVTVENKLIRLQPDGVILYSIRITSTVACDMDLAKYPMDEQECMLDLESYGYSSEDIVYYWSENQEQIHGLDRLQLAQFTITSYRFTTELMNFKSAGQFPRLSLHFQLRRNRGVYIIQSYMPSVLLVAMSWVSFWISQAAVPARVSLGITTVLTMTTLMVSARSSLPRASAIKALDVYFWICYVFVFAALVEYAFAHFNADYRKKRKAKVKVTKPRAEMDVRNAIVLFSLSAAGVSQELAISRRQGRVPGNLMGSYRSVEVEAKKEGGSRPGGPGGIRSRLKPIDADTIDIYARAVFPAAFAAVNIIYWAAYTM

rat α1β3δ GABAA receptor [7] = molecular target: T2, rat α1β3δ GABAA receptor (Rattus norvegicus, UniProt P18506+P62813+P63079); settings: for Potentiation of saturating (maximal) GABA currents: sub-gating concentration of drug
T2 sequence (P62813 28-455): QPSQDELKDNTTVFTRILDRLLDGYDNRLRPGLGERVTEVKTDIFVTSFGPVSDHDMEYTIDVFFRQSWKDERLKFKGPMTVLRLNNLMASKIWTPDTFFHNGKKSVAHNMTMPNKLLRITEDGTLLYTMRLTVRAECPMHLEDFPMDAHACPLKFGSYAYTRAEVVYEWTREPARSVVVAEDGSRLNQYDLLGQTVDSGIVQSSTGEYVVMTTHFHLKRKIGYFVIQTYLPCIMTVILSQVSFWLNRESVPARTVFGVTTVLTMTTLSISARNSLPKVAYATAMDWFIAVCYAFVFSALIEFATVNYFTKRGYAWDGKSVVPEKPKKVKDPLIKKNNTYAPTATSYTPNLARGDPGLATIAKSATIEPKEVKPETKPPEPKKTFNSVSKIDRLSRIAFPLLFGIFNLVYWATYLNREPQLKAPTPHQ
T2 sequence (P63079 26-473): as the sequence (P63079 26-473) above
T2 sequence (P18506 17-449 limits assumed): as the sequence (P18506 17-449 limits assumed) above

rat α1β2 GABAA receptor = rat α1β2 GABAA receptor (Rattus norvegicus, UniProt P62813+P63138); assay: Whole-cell patch clamp, HEK293 cells expressing rat α1β2 GABAARs; assay type: cell-based
Sequence of rat α1β2 GABAA receptor (P62813 28-455): as the sequence (P62813 28-455) above
Sequence of rat α1β2 GABAA receptor (P63138 25-474 limits assumed): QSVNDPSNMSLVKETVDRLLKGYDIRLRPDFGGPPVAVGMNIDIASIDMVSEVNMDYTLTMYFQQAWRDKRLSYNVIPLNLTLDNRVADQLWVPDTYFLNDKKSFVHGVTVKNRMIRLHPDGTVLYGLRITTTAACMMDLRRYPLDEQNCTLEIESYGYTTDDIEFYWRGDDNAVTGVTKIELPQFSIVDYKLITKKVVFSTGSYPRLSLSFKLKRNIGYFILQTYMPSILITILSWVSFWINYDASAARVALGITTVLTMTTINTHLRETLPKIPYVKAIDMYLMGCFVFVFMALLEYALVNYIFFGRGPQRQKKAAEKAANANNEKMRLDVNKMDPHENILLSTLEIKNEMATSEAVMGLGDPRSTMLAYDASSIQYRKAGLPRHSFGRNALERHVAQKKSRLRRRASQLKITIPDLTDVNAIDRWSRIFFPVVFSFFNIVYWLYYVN

[8] = molecular target: human α4β2γ2 GABAA receptor (Homo sapiens, UniProt P18507+P47870+P48169, DEL377-384, form not given); assay: Whole-cell patch clamp, HEK293 cells expressing α4β2γ2 GABAARs; assay type: cell-based
[9] = molecular target: human α5β2γ2 GABAA receptor (Homo sapiens, UniProt P18507+P31644+P47870, DEL377-384, form not given); assay: Whole-cell patch clamp, HEK293 cells expressing α5β2γ2 GABAARs; assay type: cell-based
[10] = molecular target: rat α1β3γ2 GABAA receptor (Rattus norvegicus, UniProt P18508+P62813+P63079); assay: Whole-cell patch clamp, HEK293 cells expressing rat α1β3γ2 GABAARs; assay type: cell-based
[11] = tested on: αxβ2γ2 GABAA receptors, where x = α subunit 1–6; assay: Whole-cell patch clamp, direct gating across αxβ2γ2 GABAA receptors; assay type: cell-based, human; settings: range over α1–α6 β2γ2 receptors
[12] = case reports; ref McIntyre et al., 2012; Robertson and Marinetti, 2003; cited from earlier work
rat α1β3 GABAA receptor [13] = molecular target: T3, rat α1β3 GABAA receptor (Rattus norvegicus, UniProt P62813+P63079); assay: cell-based
T3 sequence (P62813 28-455): as the sequence (P62813 28-455) above
T3 sequence (P63079 26-473): as the sequence (P63079 26-473) above

rat α1β3 GABAA receptor [14] = molecular target: T3, rat α1β3 GABAA receptor
rat α1β3δ GABAA receptor [15] = molecular target: T2, rat α1β3δ GABAA receptor; assay: cell-based
[16] = single dose of 350 mg; ref Littrell et al., 1993; cited from earlier work
[17] = maximum current by carisoprodol plus GABA (EC20) normalized to GABA (EC20) currents
[18] = normalized to maximum GABA gated currents
[19] = read-out: Carisoprodol direct gating EC50, relative to maximum current elicited by carisoprodol
[20] = read-out: EC50 for allosteric modulation by carisoprodol, in the presence of GABA (EC20)

NCCCC(=O)O [GABA, γ-aminobutyric acid]
GABA Hill Coefficient [1]: 1.02 ± 0.12 | GABA Hill Coefficient [2]: 1.32 ± 0.03 | GABA current amplitude at +60 mV as % of that recorded at −60 mV (outward rectification) ([2]; lower concentrations of GABA): 110% | GABA Hill Coefficient [3]: 1.17 ± 0.09 | GABA Hill Coefficient [4]: 1.04 ± 0.06 | GABA Hill Coefficient ([5]; α1β2): 1.32 ± 0.11 | GABA Hill Coefficient [6]: 1.09 ± 0.12

Oc1noc2c1CCNC2 [THIP, 4,5,6,7-tetrahydroisoxazolo(5,4-c)pyridin-3-ol]
THIP-gated currents, % of the amplitude of currents obtained with saturating GABA (rat α4β3δ GABAA receptor): 153.4 ± 10.7% | THIP-gated currents, % of the amplitude of currents obtained with saturating GABA (rat α1β3δ GABAA receptor [7]; α1β3δ): 135.6 ± 7.2%

CCCC(C)(COC(N)=O)COC(=O)NC(C)C (stereo not shown) [carisoprodol, Carisoprodol]
EC50 (rat α1β2 GABAA receptor; CSP gating EC50, rat α1β2, relative to maximum current elicited by carisoprodol): 670 ± 22.2 µM | EC50 (rat α1β2 GABAA receptor; CSP modulation EC50, rat α1β2, in the presence of GABA (EC20)): 120 ± 10.5 µM | CSP modulation Efficacy (rat α1β2 GABAA receptor; rat α1β2, maximum current by carisoprodol plus GABA (EC20) normalized to GABA (EC20) currents): 442.2 ± 27.7 | CSP gating Efficacy (rat α1β2 GABAA receptor; rat α1β2, normalized to maximum GABA gated currents): 44.6 ± 4.85 | Efficacy of allosteric modulation by carisoprodol [8, 17]: 240.0 ± 16.4 % | Carisoprodol direct gating Efficacy [8, 18]: 37.3 ± 5.0% | EC50 [8, 19]: 758 ± 61.3 µM | EC50 [8, 20]: 72.3 ± 10.1 µM | Efficacy of allosteric modulation by carisoprodol [9, 17]: 247.6 ± 23.0 % | Carisoprodol direct gating Efficacy [9, 18]: 37.7 ± 3.5% | EC50 [9, 19]: 835 ± 60.3 µM | EC50 [9, 20]: 90.8 ± 14.7 µM | EC50 ([10]; CSP modulation EC50, rat α1β3γ2, in the presence of GABA (EC20)): 131 ± 12.4 µM | CSP gating Efficacy ([10]; rat α1β3γ2, normalized to maximum GABA gated currents): 44.8 ± 3.23 | Potentiation of saturating (maximal) GABA currents ([10]; α1β3γ2, sub-gating concentration of drug): not seen | Maximal carisoprodol-gated current, efficacy as % of maximal GABA-gated current [11]: 13–43% | Potentiation of saturating (maximal) GABA currents (rat α4β3δ GABAA receptor): significant potentiation of maximal GABA currents | Efficacy of allosteric modulation by carisoprodol [1, 17]: 232.6 ± 26.9 % | Carisoprodol direct gating Efficacy [1, 18]: 36.8 ± 4.7% | EC50 [1, 19]: 294 ± 28.1 µM | EC50 [1, 20]: 79.8 ± 13.8 µM | Fatal blood or plasma concentration [12]: ≥ 140 µM | Enhancement of GABA current by carisoprodol, % of control ([2]; +60 mV): 204.8 ± 5.3% | Enhancement of GABA current by carisoprodol, % of control ([2]; −60 mV): 285.3 ± 17.7% | Mean carisoprodol direct gating effect, % of maximal GABA-gated current ([2]; 100 µM carisoprodol): 2.8% | Voltage-dependence of direct gating effect ([2]; 1 mM CSP, −60 mV vs +60 mV): not impacted by membrane voltage | Efficacy of allosteric modulation by carisoprodol [2, 17]: 474.7 ± 53.5% | EC50 [2, 19]: 686 ± 30.4 µM | EC50 [2, 20]: 88.2 ± 19.9 µM | EC50 (rat α1β3 GABAA receptor [13]; CSP gating EC50, rat α1β3, relative to maximum current elicited by carisoprodol): 606 ± 25.3 µM | EC50 (rat α1β3 GABAA receptor [13]; CSP modulation EC50, rat α1β3, in the presence of GABA (EC20)): 135 ± 12.8 µM | Efficacy of allosteric modulation by carisoprodol [3, 17]: 225.6 ± 14.6 % | Carisoprodol direct gating Efficacy [3, 18]: 69.7 ± 5.4 % | EC50 [3, 19]: 729 ± 58.1 µM | EC50 [3, 20]: 33.1 ± 4 µM | CSP modulation Efficacy (rat α1β3 GABAA receptor [14]; rat α1β3, maximum current by carisoprodol plus GABA (EC20) normalized to GABA (EC20) currents): 234.5 ± 18.9 | CSP gating Efficacy (rat α1β3 GABAA receptor [14]; rat α1β3, normalized to maximum GABA gated currents): 50.8 ± 6.24 | Potentiation of saturating (maximal) GABA currents (rat α1β3 GABAA receptor [14]; α1β3, sub-gating concentration of drug): not seen | Efficacy of allosteric modulation by carisoprodol [4, 17]: 242.7 ± 35.1 % | Carisoprodol direct gating Efficacy [4, 18]: 13.4 ± 1.4 % | EC50 [4, 19]: 1870 ± 92.4 µM | EC50 [4, 20]: 63.7 ± 16.5 µM | EC50 (rat α1β3δ GABAA receptor [15]; CSP gating EC50, rat α1β3δ, relative to maximum current elicited by carisoprodol): 801 ± 24.2 µM | EC50 (rat α1β3δ GABAA receptor [15]; CSP modulation EC50, rat α1β3δ, in the presence of GABA (EC20)): 109 ± 11.4 µM | Onset of effects after administration [16]: ≤ 30 min | Plasma concentrations [16]: 4000 to 7000 ng/mL | Time in which plasma concentrations are reached [16]: 2 to 4 h | CSP modulation Efficacy (rat α1β3δ GABAA receptor [7]; rat α1β3δ, maximum current by carisoprodol plus GABA (EC20) normalized to GABA (EC20) currents): 241.5 ± 25.1 | CSP gating Efficacy (rat α1β3δ GABAA receptor [7]; rat α1β3δ, normalized to maximum GABA gated currents): 128.7 ± 12.3 | Carisoprodol direct gating efficacy relative to THIP (rat α1β3δ GABAA receptor [7]; α1β3δ): roughly 90% | Potentiation of saturating (maximal) GABA currents (rat α1β3δ GABAA receptor [7]; α1β3δ): significant potentiation of maximal GABA currents | EC50 ([5]; Carisoprodol direct gating EC50, α1β2, relative to maximum current elicited by carisoprodol): 679 ± 24.3 µM | EC50 ([5]; EC50 for allosteric modulation by carisoprodol, α1β2, in the presence of GABA (EC20)): 87.4 ± 16.4 µM | Efficacy of allosteric modulation by carisoprodol ([5]; α1β2, maximum current by carisoprodol plus GABA (EC20) normalized to GABA (EC20) currents): 346.7 ± 67.6% | Carisoprodol direct gating Efficacy ([5]; α1β2, normalized to maximum GABA gated currents): 45.9 ±3% | Efficacy of allosteric modulation by carisoprodol [6, 17]: 198.5 ± 9.5 % | Carisoprodol direct gating Efficacy [6, 18]: 30.1 ± 1.4% | EC50 [6, 19]: 829 ± 50.2 µM | EC50 [6, 20]: 64.9 ± 19.1 µM

CCCC(C)C1(CC)C(=O)NC(=O)NC1=O (stereo not shown) [pentobarbital]
Potentiation of saturating (maximal) GABA currents (rat α4β3δ GABAA receptor): potentiation of saturating GABA currents | Potentiation of saturating (maximal) GABA currents (rat α1β3δ GABAA receptor [7]; α1β3δ): potentiation of saturating GABA currents

From PMC4737552 (Neuropharmacology, 2015)
